Results reported in paper PMC10108886 (Cancer Research Communications, 2023).
Like-named read-outs stand apart in the source and are kept apart here.

What was measured:
Test in all cases: cells
[1] = test system: DU145; settings: Homo sapiens, DU-145, read-out: EC50 of RBN2397 (nM), Ligand* (Conc.)=BBQ (10 nM); AR Status=(-); growth inhibition with PARP7-inducing ligand; partial maximal effect
Excerpt: (§1) VCaP cells encode wild-type (WT) AR and the V7 variant, and are used to model castrate resistance owing to amplification of AR. CWR22Rv1 is an informative model for therapy resistance mediated by AR splice variants that lack the ligand-binding domain. PC3-AR is a PC3 derivative engineered to express WT AR, which drives a gene expression profile that overlaps other prostate lines ([18]). PC3 cells are AR negative, resistant to therapies based on androgen deprivation, highly motile, and used to study prostate cancer metastasis. […] It is well established that androgen treatment is growth repressive in some prostate cancer lines. […] A G1 effect of androgen is, however, apparent in VCaP and PC3-AR cells (Supplementary Fig. S1A). […] FICZ is a naturally occurring tryptophan photoproduct, while 10-Chloro-7H-benzimidazo[2,1-a]benz[de]isoquinolin-7-one (10-CI-BBQ; here termed BBQ) is a synthetic molecule. FICZ and BBQ induce AHR target genes through a chaperone-mediated mechanism ([26]). […] In A, D–H, each condition reflects eight biological replicates, error bars show the SD, and ****, P < 0.0001; ***, P < 0.001; **, <0.01. […] The experiments were performed in triplicate, error bars show the SD, and ***, P < 0.001; **, <0.01, *, <0.05; ns, not significant. C, Phase contrast microscopy showing the morphology of cells treated with AHR agonist and RBN2397. […] A similar image for CWR22Rv1 cells with vehicle alone (−) is used in both Fig. 2C and 4C. […] F, RBN2397 dose–response curve of VCaP cells treated with BBQ.

[2] = test system: VCaP; settings: Homo sapiens, VCaP, AR Status=WT and V7, growth inhibition with PARP7-inducing ligand, partial maximal effect
Excerpt: as §1

[3] = test system: PC3; settings: Homo sapiens, AR Status=(-), growth inhibition with PARP7-inducing ligand, partial maximal effect
Excerpt: as §1

[4] = test system: PC3AR(shGFP); settings: PC3/AR, AR Status=WT, growth inhibition with PARP7-inducing ligand, partial maximal effect
Excerpt: as §1

[5] = test system: PC3AR(shParp7); settings: PC3/AR, AR Status=WT, growth inhibition with PARP7-inducing ligand, partial maximal effect
Excerpt: as §1

[6] = test system: CWR22Rv1(shPARP7); settings: AR Status=H874Y and V7, growth inhibition with PARP7-inducing ligand, partial maximal effect
Excerpt: as §1

[7] = test system: CWR22Rv1(shGFP); settings: AR Status=H874Y and V7, growth inhibition with PARP7-inducing ligand, partial maximal effect
Excerpt: as §1

[8] = test system: PC3AR; settings: PC3/AR, read-out: EC50 of RBN2397 (nM), Ligand* (Conc.)=R1881 (0.2 nM); AR Status=WT; growth inhibition with PARP7-inducing ligand; partial maximal effect
Excerpt: as §1

[9] = read-out: EC50 of RBN2397 (nM), Ligand* (Conc.)=BBQ (10 nM)
[10] = read-out: EC50 of RBN2397 (nM), Ligand* (Conc.)=R1881 (0.2 nM)
[11] = CWR22Rv1, read-out: EC50 of RBN2397 (nM), Ligand* (Conc.)=BBQ (10 nM)
[12] = CWR22Rv1, read-out: EC50 of RBN2397 (nM), Ligand* (Conc.)=R1881 (2 nM)

**Q.** Which EC50 [1] does the source give for `C[C@@H](COCCC(=O)N1CCN(c2ncc(C(F)(F)F)cn2)CC1)Nc1cn[nH]c(=O)c1C(F)(F)F` [RBN2397] here?
**A.** Its EC50 is 5.2 nM.

**Q.** What about the EC50 ([2]; read-out: EC50 of RBN2397 (nM), Ligand* (Conc.)=BBQ (100 nM)) of the same molecule?
**A.** Its EC50 is 34.2 nM.

**Q.** What about the EC50 ([2]; read-out: EC50 of RBN2397 (nM), Ligand* (Conc.)=R1881 (2 nM)) of the same molecule?
**A.** The EC50 was 3.4 nM.

**Q.** What about the EC50 ([3]; PC-3, read-out: EC50 of RBN2397 (nM), Ligand* (Conc.)=BBQ (10 nM)) of the same molecule?
**A.** The EC50 was 10 nM.

**Q.** And the EC50 ([3]; PC-3, read-out: EC50 of RBN2397 (nM), Ligand* (Conc.)=R1881 (0.2 nM))?
**A.** The EC50 was 9.4 nM.

**Q.** What about the EC50 [4, 9] of the same molecule?
**A.** Its EC50 is 8.4 nM.

**Q.** What about the EC50 [4, 10] of the same molecule?
**A.** Its EC50 is 3.4 nM.

**Q.** And the EC50 [5, 9]?
**A.** The EC50 was 5.6 nM.

**Q.** What about the EC50 [5, 10] of the same molecule?
**A.** The EC50 was 5.7 nM.

**Q.** What about the EC50 [6, 11] of the same molecule?
**A.** Its EC50 is 1.7 nM.

**Q.** And the EC50 [6, 12]?
**A.** Its EC50 is 39.6 nM.

**Q.** What about the EC50 [7, 11] of the same molecule?
**A.** Its EC50 is 0.6 nM.

**Q.** And the EC50 [7, 12]?
**A.** The EC50 was 4.8 nM.

**Q.** What about the EC50 [8] of the same molecule?
**A.** The EC50 was 2.4 nM.
